Experimental data as given in PubChem BioAssay AID1845212 (Molecular Pharmacology Branch, DTP, NCI, 2023).

Tested on: NCI-H719 tumor spheroids, viability
Test: Anticancer human tumor NCI-H719 cell line growth inhibition;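 further: spheroids exposed to compounds for seven days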;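 on viability, T/C: percent viability relative to DMSO vehicle control as 100%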
Conditions: spheroids with HUVEC and MSC; for IC50: curve of first compound; for viability, T/C: stronger effect = lower value
Procedure, shortened: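 Complex tumor spheroids combined malignant cells with endothelial cells and mesenchymal stem cells. DNA-damaging drugs and DNA repair inhibitors were tested alone and in combination, at half-log dilutions down from clinical Cmax (top 10 microM if Cmax unknown), 0.25% DMSO final.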

[1] = second compound 0.003 µM, first compound 0.0316 µM
[2] = second compound 0.003 µM, first compound 0.1 µM
[3] = second compound 0.003 µM, first compound 0.316 µM
[4] = second compound 0.003 µM, first compound 1 µM
[5] = second compound 0.003 µM, first compound 3.16 µM
[6] = second compound 0.003 µM, first compound 10 µM

## Cn1ncnc1[C@H]1c2n[nH]c(=O)c3cc(F)cc(c23)N[C@@H]1c1ccc(F)cc1 + CC[C@@]1(O)C(=O)OCc2c1cc1n(c2=O)Cc2cc3c(CN(C)C)c(O)ccc3nc2-1
Second compound 0.003 µM
  IC50: < 9.49 nM
Second compound 0.00949 µM
  IC50: < 9.49 nM
Second compound 0.03 µM
  IC50: < 9.49 nM
Second compound 0.0949 µM
  IC50: < 9.49 nM
Second compound 0.3 µM
  IC50: < 9.49 nM
Second compound 0.003 µM, first compound 0.00949 µM
  viability, T/C: 5.32%
Second compound 0.003 µM, first compound 0.03 µM
  viability, T/C: 5.79%
Second compound 0.003 µM, first compound 0.0949 µM
  viability, T/C: 5.99%
Second compound 0.003 µM, first compound 0.3 µM
  viability, T/C: 5.19%
Second compound 0.003 µM, first compound 0.949 µM
  viability, T/C: 4.99%
Second compound 0.003 µM, first compound 3 µM
  viability, T/C: 5.85%
Second compound 0.00949 µM, first compound 0.00949 µM
  viability, T/C: 5.81%
Second compound 0.00949 µM, first compound 0.03 µM
  viability, T/C: 5.54%
Second compound 0.00949 µM, first compound 0.0949 µM
  viability, T/C: 5.47%
Second compound 0.00949 µM, first compound 0.3 µM
  viability, T/C: 5.57%
Second compound 0.00949 µM, first compound 0.949 µM
  viability, T/C: 5.5%
Second compound 0.00949 µM, first compound 3 µM
  viability, T/C: 6.37%
Second compound 0.03 µM, first compound 0.00949 µM
  viability, T/C: 5.15%
Second compound 0.03 µM, first compound 0.03 µM
  viability, T/C: 5.23%
Second compound 0.03 µM, first compound 0.0949 µM
  viability, T/C: 4.9%
Second compound 0.03 µM, first compound 0.3 µM
  viability, T/C: 5.13%
Second compound 0.03 µM, first compound 0.949 µM
  viability, T/C: 5.61%
Second compound 0.03 µM, first compound 3 µM
  viability, T/C: 6.6%
Second compound 0.0949 µM, first compound 0.00949 µM
  viability, T/C: 5.2%
Second compound 0.0949 µM, first compound 0.03 µM
  viability, T/C: 5.29%
Second compound 0.0949 µM, first compound 0.0949 µM
  viability, T/C: 6.09%
Second compound 0.0949 µM, first compound 0.3 µM
  viability, T/C: 5.95%
Second compound 0.0949 µM, first compound 0.949 µM
  viability, T/C: 5.66%
Second compound 0.0949 µM, first compound 3 µM
  viability, T/C: 7.03%
Second compound 0.3 µM, first compound 0.00949 µM
  viability, T/C: 5.56%
Second compound 0.3 µM, first compound 0.03 µM
  viability, T/C: 5.67%
Second compound 0.3 µM, first compound 0.0949 µM
  viability, T/C: 5.84%
Second compound 0.3 µM, first compound 0.3 µM
  viability, T/C: 5.89%
Second compound 0.3 µM, first compound 0.949 µM
  viability, T/C: 6.04%
Second compound 0.3 µM, first compound 3 µM
  viability, T/C: 5.47%

## CC1COCCN1c1cc(-c2ccnn2C)c2ccnc(-c3ccn[nH]3)c2n1 (stereo not given) + COc1cc2c(cc1O)CCNC21CSC2c3c(OC(C)=O)c(C)c4c(c3C(COC1=O)N1C(O)C3Cc5cc(C)c(OC)c(O)c5C(C21)N3C)OCO4
Second compound 30 pM
  IC50: < 31.6 nM
Second compound 94.9 pM
  IC50: < 31.6 nM
Second compound 0.0003 µM
  IC50: < 31.6 nM
Second compound 0.000949 µM
  IC50: < 31.6 nM
Second compound 0.003 µM
  IC50: < 31.6 nM
Second compound 30 pM, first compound 0.0316 µM
  viability, T/C: 29%
Second compound 30 pM, first compound 0.1 µM
  viability, T/C: 19.2%
Second compound 30 pM, first compound 0.316 µM
  viability, T/C: 16.2%
Second compound 30 pM, first compound 1 µM
  viability, T/C: 9.83%
Second compound 30 pM, first compound 3.16 µM
  viability, T/C: 8.37%
Second compound 30 pM, first compound 10 µM
  viability, T/C: 11%
Second compound 94.9 pM, first compound 0.0316 µM
  viability, T/C: 13.6%
Second compound 94.9 pM, first compound 0.1 µM
  viability, T/C: 7.91%
Second compound 94.9 pM, first compound 0.316 µM
  viability, T/C: 7.75%
Second compound 94.9 pM, first compound 1 µM
  viability, T/C: 7.08%
Second compound 94.9 pM, first compound 3.16 µM
  viability, T/C: 6.07%
Second compound 94.9 pM, first compound 10 µM
  viability, T/C: 10.4%
Second compound 0.0003 µM, first compound 0.0316 µM
  viability, T/C: 7.42%
Second compound 0.0003 µM, first compound 0.1 µM
  viability, T/C: 7.97%
Second compound 0.0003 µM, first compound 0.316 µM
  viability, T/C: 6.18%
Second compound 0.0003 µM, first compound 1 µM
  viability, T/C: 5.64%
Second compound 0.0003 µM, first compound 3.16 µM
  viability, T/C: 6.36%
Second compound 0.0003 µM, first compound 10 µM
  viability, T/C: 9.31%
Second compound 0.000949 µM, first compound 0.0316 µM
  viability, T/C: 7.59%
Second compound 0.000949 µM, first compound 0.1 µM
  viability, T/C: 7.35%
Second compound 0.000949 µM, first compound 0.316 µM
  viability, T/C: 6.11%
Second compound 0.000949 µM, first compound 1 µM
  viability, T/C: 3.98%
Second compound 0.000949 µM, first compound 3.16 µM
  viability, T/C: 3.9%
Second compound 0.000949 µM, first compound 10 µM
  viability, T/C: 3.4%
[1]
  viability, T/C: 0.28%
[2]
  viability, T/C: 0.46%
[3]
  viability, T/C: 0.86%
[4]
  viability, T/C: 1.82%
[5]
  viability, T/C: 0.25%
[6]
  viability, T/C: 0.52%

## Cc1cc(C)c(CNC(=O)c2cc(-c3ccc(CN4CCOCC4)cc3)cc3c2cnn3C2CCCC2)c(=O)[nH]1 + CC[C@@]1(O)C(=O)OCc2c1cc1n(c2=O)Cc2cc3c(CN(C)C)c(O)ccc3nc2-1
Second compound 0.003 µM
  IC50: 2260 nM
Second compound 0.00949 µM
  IC50: < 31.6 nM
Second compound 0.03 µM
  IC50: < 31.6 nM
Second compound 0.0949 µM
  IC50: < 31.6 nM
Second compound 0.3 µM
  IC50: < 31.6 nM
[1]
  viability, T/C: 52.6%
[2]
  viability, T/C: 52.9%
[3]
  viability, T/C: 54.8%
[4]
  viability, T/C: 51.6%
[5]
  viability, T/C: 49.1%
[6]
  viability, T/C: 39.2%
Second compound 0.00949 µM, first compound 0.0316 µM
  viability, T/C: 6.76%
Second compound 0.00949 µM, first compound 0.1 µM
  viability, T/C: 6.82%
Second compound 0.00949 µM, first compound 0.316 µM
  viability, T/C: 6.88%
Second compound 0.00949 µM, first compound 1 µM
  viability, T/C: 6.69%
Second compound 0.00949 µM, first compound 3.16 µM
  viability, T/C: 6.81%
Second compound 0.00949 µM, first compound 10 µM
  viability, T/C: 5.13%
Second compound 0.03 µM, first compound 0.0316 µM
  viability, T/C: 6.03%
Second compound 0.03 µM, first compound 0.1 µM
  viability, T/C: 5.75%
Second compound 0.03 µM, first compound 0.316 µM
  viability, T/C: 6.33%
Second compound 0.03 µM, first compound 1 µM
  viability, T/C: 5.99%
Second compound 0.03 µM, first compound 3.16 µM
  viability, T/C: 6.45%
Second compound 0.03 µM, first compound 10 µM
  viability, T/C: 16.3%
Second compound 0.0949 µM, first compound 0.0316 µM
  viability, T/C: 5.7%
Second compound 0.0949 µM, first compound 0.1 µM
  viability, T/C: 5.83%
Second compound 0.0949 µM, first compound 0.316 µM
  viability, T/C: 5.84%
Second compound 0.0949 µM, first compound 1 µM
  viability, T/C: 6.02%
Second compound 0.0949 µM, first compound 3.16 µM
  viability, T/C: 6.69%
Second compound 0.0949 µM, first compound 10 µM
  viability, T/C: 6.41%
Second compound 0.3 µM, first compound 0.0316 µM
  viability, T/C: 5.68%
Second compound 0.3 µM, first compound 0.1 µM
  viability, T/C: 6.37%
Second compound 0.3 µM, first compound 0.316 µM
  viability, T/C: 6.67%
Second compound 0.3 µM, first compound 1 µM
  viability, T/C: 6.18%
Second compound 0.3 µM, first compound 3.16 µM
  viability, T/C: 6.37%
Second compound 0.3 µM, first compound 10 µM
  viability, T/C: 6.13%
